The source made the active and inactive calls. No cut-off for these calls is given here.
Tests used:
[1] = Cytotoxicity against human HCT116 cells assessed as growth inhibition after 72 hrs by Alamar Blue assay; format: functional, cell-based; conditions: HCT-116, 72 h
[2] = Intrinsic clearance in mouse liver microsomes assessed per mg of protein at 3 uM after 5 to 60 mins by LC-MS/MS method; format: ADME; conditions: read-out: CLH
[3] = Passive permeability of the compound assessed as compound recovery at 10 uM after 5 hrs by PAMPA; format: ADME; conditions: read-out: Drug recovery
[4] = Chemical stability of the compound at 5 uM after 15 to 120 mins by LC-MS/MS method; format: physicochemical
[5] = target: T1, Kinesin-like protein KIF9 (Homo sapiens) (UniProt Q9HAQ2); assay: Inhibition of microtubule-stimulated ATPase activity of human Kif9 at 200 uM by pyruvate kinase/lactate dehydrogenase-linked assay
T1 sequence (whole entry): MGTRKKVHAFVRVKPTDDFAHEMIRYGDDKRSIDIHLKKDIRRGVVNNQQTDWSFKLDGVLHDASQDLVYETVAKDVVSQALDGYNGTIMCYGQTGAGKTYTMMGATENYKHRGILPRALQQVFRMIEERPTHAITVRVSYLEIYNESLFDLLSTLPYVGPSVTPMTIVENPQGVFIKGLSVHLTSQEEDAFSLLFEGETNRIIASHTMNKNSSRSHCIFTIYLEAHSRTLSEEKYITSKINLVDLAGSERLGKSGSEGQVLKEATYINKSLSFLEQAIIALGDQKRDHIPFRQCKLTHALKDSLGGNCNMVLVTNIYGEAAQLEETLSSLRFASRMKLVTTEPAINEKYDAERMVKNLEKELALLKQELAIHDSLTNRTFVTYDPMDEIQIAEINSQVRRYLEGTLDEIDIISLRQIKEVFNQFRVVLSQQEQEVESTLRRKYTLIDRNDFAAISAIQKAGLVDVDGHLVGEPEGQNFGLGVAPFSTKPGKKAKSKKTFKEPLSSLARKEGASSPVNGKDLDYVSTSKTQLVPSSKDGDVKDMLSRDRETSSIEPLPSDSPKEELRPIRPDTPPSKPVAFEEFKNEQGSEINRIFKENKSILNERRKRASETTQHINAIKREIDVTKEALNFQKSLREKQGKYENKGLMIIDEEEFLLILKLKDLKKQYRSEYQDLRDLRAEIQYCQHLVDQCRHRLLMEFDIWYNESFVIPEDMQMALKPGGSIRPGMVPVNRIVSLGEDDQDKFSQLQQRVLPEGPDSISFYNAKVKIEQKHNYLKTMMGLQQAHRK

[6] = target: T2, Kinesin-like protein KIF3B (Homo sapiens) (UniProt O15066); assay: Inhibition of microtubule-stimulated ATPase activity of human Kif3B at 200 uM by pyruvate kinase/lactate dehydrogenase-linked assay
T2 sequence (whole entry): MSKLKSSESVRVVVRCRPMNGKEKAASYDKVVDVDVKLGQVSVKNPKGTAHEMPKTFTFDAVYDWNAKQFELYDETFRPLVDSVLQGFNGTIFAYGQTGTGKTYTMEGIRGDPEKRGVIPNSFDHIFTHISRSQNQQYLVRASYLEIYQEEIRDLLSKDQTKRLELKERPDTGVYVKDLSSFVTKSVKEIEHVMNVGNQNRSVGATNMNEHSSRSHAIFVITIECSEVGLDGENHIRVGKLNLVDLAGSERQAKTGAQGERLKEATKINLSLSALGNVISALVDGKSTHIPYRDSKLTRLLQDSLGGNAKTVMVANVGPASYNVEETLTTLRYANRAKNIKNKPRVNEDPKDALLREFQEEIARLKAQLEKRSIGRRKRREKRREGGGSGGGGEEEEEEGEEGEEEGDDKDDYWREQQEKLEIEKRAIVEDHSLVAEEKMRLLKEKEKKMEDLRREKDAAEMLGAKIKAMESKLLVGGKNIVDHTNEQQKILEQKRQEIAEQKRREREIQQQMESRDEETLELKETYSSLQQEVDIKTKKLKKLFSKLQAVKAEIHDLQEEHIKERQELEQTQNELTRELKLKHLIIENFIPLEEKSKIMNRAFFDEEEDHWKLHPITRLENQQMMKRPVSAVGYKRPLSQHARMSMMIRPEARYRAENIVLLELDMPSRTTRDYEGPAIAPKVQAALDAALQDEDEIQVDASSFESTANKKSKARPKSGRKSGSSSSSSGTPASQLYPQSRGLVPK

[7] = target: T3, Kinesin-like protein KIF20B (Homo sapiens, UniProt Q96Q89); assay: Inhibition of basal ATPase activity of N-terminal His6-tagged/SUMO-fused human MPP1 motor domain (57 to 491 residues) expressed in Escherichia coli BL21 CodonPlus in presence of 0.1% Tween-20 by pyruvate kinase/lactate dehydrogenase-linked assay
T3 sequence (Q96Q89 whole entry, the tested form may be a part): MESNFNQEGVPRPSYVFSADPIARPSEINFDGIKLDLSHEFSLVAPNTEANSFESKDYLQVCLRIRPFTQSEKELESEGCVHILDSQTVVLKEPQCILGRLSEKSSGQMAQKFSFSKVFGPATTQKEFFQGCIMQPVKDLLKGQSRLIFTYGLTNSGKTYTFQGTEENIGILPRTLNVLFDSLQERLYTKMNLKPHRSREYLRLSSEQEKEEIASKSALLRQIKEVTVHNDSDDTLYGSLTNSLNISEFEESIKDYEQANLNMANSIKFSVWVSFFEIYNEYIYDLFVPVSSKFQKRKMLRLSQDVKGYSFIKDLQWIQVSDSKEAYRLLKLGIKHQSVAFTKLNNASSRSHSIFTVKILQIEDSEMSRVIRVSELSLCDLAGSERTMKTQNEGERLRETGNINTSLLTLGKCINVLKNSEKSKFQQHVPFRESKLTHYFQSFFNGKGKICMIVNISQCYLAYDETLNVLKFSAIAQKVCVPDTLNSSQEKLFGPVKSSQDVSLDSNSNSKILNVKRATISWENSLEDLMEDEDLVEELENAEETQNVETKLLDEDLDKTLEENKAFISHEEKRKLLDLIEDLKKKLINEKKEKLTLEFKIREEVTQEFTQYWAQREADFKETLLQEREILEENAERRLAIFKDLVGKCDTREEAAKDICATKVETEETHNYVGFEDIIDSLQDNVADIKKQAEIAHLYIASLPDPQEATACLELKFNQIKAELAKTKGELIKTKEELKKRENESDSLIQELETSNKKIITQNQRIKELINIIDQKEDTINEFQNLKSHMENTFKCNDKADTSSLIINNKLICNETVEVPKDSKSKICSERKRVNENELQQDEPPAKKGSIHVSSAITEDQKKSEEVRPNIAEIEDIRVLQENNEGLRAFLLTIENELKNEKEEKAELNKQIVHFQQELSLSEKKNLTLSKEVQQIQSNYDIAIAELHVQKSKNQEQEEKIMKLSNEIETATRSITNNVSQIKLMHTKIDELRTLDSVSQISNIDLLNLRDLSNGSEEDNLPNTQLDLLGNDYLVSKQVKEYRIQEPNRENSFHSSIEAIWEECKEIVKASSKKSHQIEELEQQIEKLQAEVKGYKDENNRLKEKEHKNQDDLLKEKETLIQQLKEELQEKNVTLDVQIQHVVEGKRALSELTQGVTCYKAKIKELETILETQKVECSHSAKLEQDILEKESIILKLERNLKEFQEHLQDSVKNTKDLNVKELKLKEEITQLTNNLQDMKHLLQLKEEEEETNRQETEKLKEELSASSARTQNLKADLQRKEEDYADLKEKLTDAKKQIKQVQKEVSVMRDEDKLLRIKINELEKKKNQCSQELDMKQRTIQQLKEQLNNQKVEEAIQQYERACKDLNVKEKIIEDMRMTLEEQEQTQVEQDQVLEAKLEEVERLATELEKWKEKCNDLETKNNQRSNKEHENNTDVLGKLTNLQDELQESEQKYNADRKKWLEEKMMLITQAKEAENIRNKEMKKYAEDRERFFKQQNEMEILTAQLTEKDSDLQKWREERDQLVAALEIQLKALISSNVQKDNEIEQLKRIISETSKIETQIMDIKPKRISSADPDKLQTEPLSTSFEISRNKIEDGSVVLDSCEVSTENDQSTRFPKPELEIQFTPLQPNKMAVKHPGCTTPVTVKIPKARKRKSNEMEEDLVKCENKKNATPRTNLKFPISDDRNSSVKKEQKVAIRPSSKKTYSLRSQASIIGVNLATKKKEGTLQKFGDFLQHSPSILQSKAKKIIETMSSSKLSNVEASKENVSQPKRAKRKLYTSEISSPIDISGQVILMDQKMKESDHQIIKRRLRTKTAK

[8] = target: T3, Kinesin-like protein KIF20B; assay: Inhibition of basal ATPase activity of N-terminal His6-tagged/SUMO-fused human MPP1 motor domain (2 to 477 residues) expressed in Escherichia coli BL21 CodonPlus by pyruvate kinase/lactate dehydrogenase-linked assay
[9] = Cytotoxicity against human BxPC3 cells assessed as growth inhibition after 72 hrs by Alamar Blue assay; format: functional, cell-based; conditions: BXPC-3, 72 h
[10] = Cytotoxicity against human J82 cells assessed as growth inhibition after 72 hrs by Alamar Blue assay; format: functional, cell-based; conditions: J82, 72 h
[11] = target: T3, Kinesin-like protein KIF20B; assay: Inhibition of basal ATPase activity of N-terminal His6-tagged/SUMO-fused human MPP1 motor domain (2 to 477 residues) expressed in Escherichia coli BL21 CodonPlus in presence of 0.1% Tween-20 by pyruvate kinase/lactate dehydrogenase-linked assay
[12] = target: T3, Kinesin-like protein KIF20B; assay: Inhibition of microtubule-stimulated ATPase activity of N-terminal His6-tagged/SUMO-fused human MPP1 motor domain (2 to 477 residues) expressed in Escherichia coli BL21 CodonPlus by pyruvate kinase/lactate dehydrogenase-linked assay
[13] = target: T3, Kinesin-like protein KIF20B; conditions: 1 to 20 uM

With CCCCCC(=O)Cc1cc(O)cc2c1C(=O)Oc1cc(O)c(C(=O)O)c(CCCCC)c1O2 [PHYSODIC ACID] the EC50 [1] was over 50 µM, the microsomal CLint at 3 µM [2] was 61.6 µL/min/mg and the recovery at 5 h, 10 µM [3] was 77%. For the same molecule, the Stability [4] was “Stable”, the inhibition [5] was 50% and the inhibition [6] was 40%. For the same molecule, the inhibition [7] was “Active”, the IC50 [8] was 10.4 µM and the Imax [8] was 90%. The EC50 [9] was 37.3 µM, the EC50 [10] was 38.2 µM and the inhibition [11] was “Active”. For the same molecule, the IC50 [12] was 4.6 µM, the Imax [12] was 95% and the inhibition [13] was “Active”.

— ChEMBL document CHEMBL3860026, “Depsidones from Lichens as Natural Product Inhibitors of M-Phase Phosphoprotein 1, a Human Kinesin Required for Cytokinesis” (J Nat Prod, 2016)
